Active and inactive are the calls of the source. How the calls were made is not given here.
System: CCRIS mutagenicity, Ames/micronucleus/aberration tests
Assay: CCRIS mutagenicity studies

For `Cc1ccc([N+](=O)[O-])cc1N=O`, the mutagenic call (Test System: AMES SALMONELLA TYPHIMURIUM, Strain/Indicator: TA98, Metabolic Activation: NONE, Method: PREINCUBATION) was “active; positive”, the mutagenic call (Test System: AMES SALMONELLA TYPHIMURIUM, Strain/Indicator: TA98, Metabolic Activation: NONE, Method: SUSPENSION/PLATE) was “inactive; negative” and the mutagenic call (Test System: AMES SALMONELLA TYPHIMURIUM, Strain/Indicator: TA98, Metabolic Activation: RAT, LIVER, S-9, AROCLOR, Method: PREINCUBATION) was “active; positive”. For the same molecule, the mutagenic call (Test System: AMES SALMONELLA TYPHIMURIUM, Strain/Indicator: TA98, Metabolic Activation: RAT, LIVER, S-9, PHENOBARBITAL AND 5,6-BENZOFLAVONE, Method: SUSPENSION/PLATE) was “inactive; negative”, the mutagenic call (Test System: AMES SALMONELLA TYPHIMURIUM, Strain/Indicator: TA100, Metabolic Activation: NONE, Method: SUSPENSION/PLATE) was “inactive; negative” and the mutagenic call (Test System: AMES SALMONELLA TYPHIMURIUM, Strain/Indicator: TA100, Metabolic Activation: RAT, LIVER, S-9, PHENOBARBITAL AND 5,6-BENZOFLAVONE, Method: SUSPENSION/PLATE) was “inactive; negative”.

For `CCC[C@H]1O[C@H]1c1ccccc1`, the mutagenic call (Test System: AMES SALMONELLA TYPHIMURIUM, Strain/Indicator: TA98, Metabolic Activation: NONE, Method: PREINCUBATION (PHOSPHATE-BUFFERED KCL OR SOLUTE-FREE WATER MEDIA)) was “inactive; negative”, the mutagenic call (Test System: AMES SALMONELLA TYPHIMURIUM, Strain/Indicator: TA100, Metabolic Activation: NONE, Method: PREINCUBATION (PHOSPHATE-BUFFERED KCL OR SOLUTE-FREE WATER MEDIA)) was “inactive; negative” and the mutagenic call (Test System: AMES SALMONELLA TYPHIMURIUM, Strain/Indicator: TA104, Metabolic Activation: NONE, Method: PREINCUBATION (PHOSPHATE-BUFFERED KCL OR SOLUTE-FREE WATER MEDIA)) was “inactive; negative”.

In the case of `O=C(O)C1=C/C(=N\Nc2ccc(-c3ccc(N=Nc4ccc(N/N=C5\C=CC(=O)C(C(=O)O)=C5)c5cc(S(=O)(=O)O)ccc45)cc3)cc2)C=CC1=O`, the mutagenic call (Test System: AMES SALMONELLA TYPHIMURIUM, Strain/Indicator: TA98, Metabolic Activation: HAMSTER, LIVER, S-9, Method: PREINCUBATION (PRIVAL METHOD)) is reported as “active; positive”.

For `Cc1ccc2nsc(N)c2c1`, the mutagenic call (Test System: AMES SALMONELLA TYPHIMURIUM, Strain/Indicator: TA98, Metabolic Activation: NONE, Method: STANDARD PLATE) was “inactive; negative”, the mutagenic call (Test System: AMES SALMONELLA TYPHIMURIUM, Strain/Indicator: TA98, Metabolic Activation: S-9, Method: STANDARD PLATE) was “active; positive” and the mutagenic call (Test System: AMES SALMONELLA TYPHIMURIUM, Strain/Indicator: TA100, Metabolic Activation: NONE, Method: STANDARD PLATE) was “inactive; negative”. For the same molecule, the mutagenic call (Test System: AMES SALMONELLA TYPHIMURIUM, Strain/Indicator: TA100, Metabolic Activation: S-9, Method: STANDARD PLATE) was “active; positive”, the mutagenic call (Test System: AMES SALMONELLA TYPHIMURIUM, Strain/Indicator: TA1535, Metabolic Activation: NONE, Method: STANDARD PLATE) was “inactive; negative” and the mutagenic call (Test System: AMES SALMONELLA TYPHIMURIUM, Strain/Indicator: TA1535, Metabolic Activation: S-9, Method: STANDARD PLATE) was “inactive; negative”. The mutagenic call (Test System: AMES SALMONELLA TYPHIMURIUM, Strain/Indicator: TA1537, Metabolic Activation: NONE, Method: STANDARD PLATE) was “inactive; negative” and the mutagenic call (Test System: AMES SALMONELLA TYPHIMURIUM, Strain/Indicator: TA1537, Metabolic Activation: S-9, Method: STANDARD PLATE) was “active; positive”.

With `C#CC1(O)CC[C@H]2[C@@H]3CCC4=CCCC[C@@H]4[C@H]3CC[C@@]21C` (stereo not given in full) the mutagenic call (End Point: IN VIVO CHROMOSOMAL ABERRATIONS, Test System: BONE MARROW CELLS, Species: MOUSE, Strain/Sex: SWISS ALBINO/FEMALE, Route: IP INJECTION) was “active; positive (structural changes)”.

`OCC12OOC1(CO)c1ccccc1O2` (stereo not given) was tested, and the mutagenic call (Test System: AMES SALMONELLA TYPHIMURIUM, Strain/Indicator: TA100, Metabolic Activation: NONE, Method: PREINCUBATION) was “inactive; negative”.

From PubChem BioAssay AID1259407 (Chemical Carcinogenesis Research Information System (CCRIS), 2018)
